In US10047345B2, “Culturing of mesenchymal stem cells with FGF4 and nicotinamide” (Gamida-Cell Ltd., priority 2012, dated 2018):

Columns and labels:
mesenchymal stem cells [1] = assay: Expansion of mesenchymal stem cells with growth factors with and without nicotinamide (cumulative cell count); assay type: cell-based, human; conditions: NAM 5 mM, FGF4 50 ng/ml
Procedure: Bone marrow derived and adipose tissue derived mesenchymal cells were isolated based on their plastic adherence potential in expansion medium containing: High glucose DMEM and 10% Fetal Bovine Serum (FBS, Hyclone, Logan, Utah, USA) supplemented with 0.05 mg/ml Gentamicin (Sigma) and 2 mM L-glutamine (Biological Industries, Israel). Cells were allowed to adhere for 3-4 days and non-adherent cells were washed out with medium changes. The medium was further exchanged with fresh medium every 3-4 days.
Once adherent cells reached approximately 80-90% confluency, they were detached with 0.25% trypsin-EDTA (Sigma), washed twice in DMEM and 10% Fetal Bovine Serum, with centrifugation, 400 g, 5 minutes, and replated at a 1:2 to 1:1000 dilution under the same culture conditions.
Cell number was measured using Cedex Automated Cell Counter (Innovatis). The cells were diluted 1:2 in Trypan Blue (Sigma) and cell number was measured automatically under microscope. […]
Mesenchymal stem cells were selected and cultured in the presence of particular growth factors (basic fibroblast growth factor—bFGF, heparin binding epidermal growth factor—HB-EGF, fibroblast growth factor 4—FGF-4 and platelet derived growth factor, homodimer, subunit B, PDGF-BB) in the presence and absence of nicotinamide for three or four passages and the number and size of the cells was calculated. […]

[2] = test system: umbilical cord-derived CD133+ hematopoietic stem cells; assay: Differentiation and proliferation of ex-vivo cultured hematopoietic stem cells (FACS surface markers); assay type: cell-based
Procedure: Umbilical cord-derived hematopoietic stem cells were isolated using CD133 microbeads and CliniMACS® separator (Miltenyi, Inc. Auburn, Calif.), and cultured for 3 weeks in MEMα supplemented with 50 ng/ml TPO, IL6, SCF, Flt3, fetal bovine serum, ±2.5 or 5 mM nicotinamide, and/or 10, 50 or 200 ng/ml FGF4. After 3 weeks in culture the cells were stained for surface markers (CD38, CD133, CD33, CD19) and the cell populations determined by FACS analysis (see below). Results are expressed as percentage of total population assayed.
At different time points the cells were detached with 0.25% trypsin-EDTA. The cells were washed with a PBS solution containing 1% BSA, and stained (at 4° C. for 30 min) with either fluorescein isothiocyanate (FITC) or phycoerythrin (PE)-conjugated antibodies: 105 PE, 105 FITC (Serotec, Raleigh, N.C.), 45 FITC, 14 FITC, HLA-DR FITC, 106 PE, 31 PE (BD, Franklin Lakes N.J.), 34 PE (Dako, Glostrup, Denmark), 73 PE, HLA class1 PE, 49b PE (Pharmingen, San Diego, Calif.), 29 PE, 44 PE, 54 FITC, 59 PE, 90 PE (BioLegend, San Diego, Calif.). CD133—(AC141) PE (Miltenyi, Auburn, Calif.), CD38 FITC (Dako, Glostrup, Denmark), CD19 FITC (BD Biosciences, Franklin Lakes N.J.), CD33 FITC (BD Bioscience, Franklin Lakes N.J.).
The cells were then washed in the above buffer and analyzed using a FACScalibur® flow cytometer (Becton Dickinson, Franklin Lakes N.J.). The cells were passed at a rate of up to 1000 cells/second, using a 488 nm argon laser beam as the light source for excitation. Emission of 10000 cells was measured using logarithmic amplification, and analyzed using the CellQuest software (Becton Dickinson). Cells stained with FITC- and PE-conjugated isotype control antibodies were used to determine background fluorescence.
Umbilical cord-derived CD133+ hematopoietic stem cells were isolated and cultured for 3 weeks in medium supplemented with early-acting growth factors and fetal bovine serum, nicotinamide and/or FGF4. After 3 weeks in culture the cells were stained for surface markers (CD38, CD133, CD19) and the cell populations determined by FACS analysis. Cell proliferation was assessed by counting total cells at three weeks.

[3] = test system: bone marrow-derived mesenchymal stem cells; assay: Senescence evaluation assay (beta-galactosidase staining); assay type: cell-based, human; conditions: 5 passages, 5 mM NAM, X-Gal staining
Procedure: Cultured MSCs were stained using the Senescence beta-Galactosidase Staining Kit (Cell Signaling). The cells are fixed and stained for detection of beta-Galactosidase activity at pH 6 using X-Gal and incubation overnight in 37° C. in dry incubator.

mesenchymal stem cells [4] = assay: Large batch and serum batch MSC culture with nicotinamide (cell count); assay type: cell-based, human
Procedure: Cell number was measured using Cedex Automated Cell Counter (Innovatis). The cells were diluted 1:2 in Trypan Blue (Sigma) and cell number was measured automatically under microscope. Mesenchymal stem cells were isolated using plastic adherence method, as described above and cultured for several passages with fetal bovine serum, ±NAM. The cells were selected in the presence of NAM. At about 80% confluence, adherent cells were collected following trypsin treatment, counted, characterized and re-seeded at a concentration of 1×10^3 cells/cm^2.

[5] = test system: bone marrow derived mesenchymal stem cells; assay: Seeding, expansion, size and granularity of bone marrow derived MSCs with nicotinamide; assay type: cell-based, human
Procedure: Bone marrow derived and adipose tissue derived mesenchymal cells were isolated based on their plastic adherence potential in expansion medium containing: High glucose DMEM and 10% Fetal Bovine Serum (FBS, Hyclone, Logan, Utah, USA) supplemented with 0.05 mg/ml Gentamicin (Sigma) and 2 mM L-glutamine (Biological Industries, Israel). Cells were allowed to adhere for 3-4 days and non-adherent cells were washed out with medium changes. The medium was further exchanged with fresh medium every 3-4 days. Once adherent cells reached approximately 80-90% confluency, they were detached with 0.25% trypsin-EDTA (Sigma), washed twice in DMEM and 10% Fetal Bovine Serum, with centrifugation, 400 g, 5 minutes, and replated at a 1:2 to 1:1000 dilution under the same culture conditions. Cell size was measured using Cedex Automated Cell Counter (Innovatis). The cells were diluted 1:2 in Trypan Blue (Sigma) and cell size was measured automatically under microscope. Following trypsin treatment, the cells were analyzed for granularicity by side scatter FACS. Cell number was measured using Cedex Automated Cell Counter (Innovatis). The cells were diluted 1:2 in Trypan Blue (Sigma) and cell number was measured automatically under microscope. […] At each passage and at each medium exchange, the cultures were supplemented with mesenchymal medium, nicotinamide and growth factors.

NC(=O)c1cccnc1 [nicotinamide, Nicotinamide] was tested. Which “effect on the ability of FGF4 to increase proliferation of mesenchymal stem cells” value (mesenchymal stem cells [1]) did it give?
The value was “potentiating effect”.

And the “degree of differentiation of hematopoietic progenitor cells (CD38 and CD133-expressing fraction)” value ([2]; 3 weeks culture, nicotinamide 2.5 or 5 mM, FGF4 10 to 200 ng/ml)?
The value was “decreases significantly”.

What about the “fraction of undifferentiated early progenitors (CD38-CD133+)” value ([2]; 3 weeks, FIG. 35) of the same compound?
The value was “significantly greater fraction”.

What about the “differentiation (CD38+ cells)” value ([2]; 3 weeks, FIG. 36) of the same compound?
The value was “significant inhibition of differentiation”.

And the “myeloid lineage differentiation (CD33+ cells)” value ([2]; 3 weeks, FIG. 37)?
The value was “significant inhibition”.

What about the “lymphoid lineage differentiation (CD19+ cells)” value ([2]; 3 weeks, FIG. 38) of the same compound?
The value was “striking inhibition”.

And the “abundance of committed myeloid or lymphoid cells (CD33, CD19)” value ([2]; three week cultures)?
Its value is “consistently reduced the committed cell fraction”.

What about the “amount of senescent cells” value [3] of the same compound?
Its value is “reduced”.

And the “effect on cell count in large batches of MSCs” value (mesenchymal stem cells [4]; large batch culture)?
Its value is “evident on large batches”.

And the “dependence of the proliferative effect on serum batch” value (mesenchymal stem cells [4]; one of two experiments)?
The value was “not dependent on a particular batch of serum”.

And the “seeding efficacy (selection) of bone marrow derived MSCs” value [5]?
Its value is “increased the seeding efficacy”.

And the “expansion rate of bone marrow derived MSCs at low nicotinamide concentration” value ([5]; 0.1 mM nicotinamide, figure not shown)?
Its value is “insignificant effect”.

What about the “cell size and granularity of MSCs versus culture without nicotinamide” value ([5]; identical conditions without nicotinamide as comparison) of the same compound?
Its value is “smaller and less granular”.

And the “doubling time of MSCs” value ([5]; nicotinamide added from initiation of culture and at each passage)?
Its value is “decreased”.
